Our source for the residual activity values is the kinase profiling compilation of Christmann-Franck et al. (2016).

Structures are written as SMILES.

RPS6KA2 KD1 KD2 (human), sequence (Q15349 whole entry, looked up): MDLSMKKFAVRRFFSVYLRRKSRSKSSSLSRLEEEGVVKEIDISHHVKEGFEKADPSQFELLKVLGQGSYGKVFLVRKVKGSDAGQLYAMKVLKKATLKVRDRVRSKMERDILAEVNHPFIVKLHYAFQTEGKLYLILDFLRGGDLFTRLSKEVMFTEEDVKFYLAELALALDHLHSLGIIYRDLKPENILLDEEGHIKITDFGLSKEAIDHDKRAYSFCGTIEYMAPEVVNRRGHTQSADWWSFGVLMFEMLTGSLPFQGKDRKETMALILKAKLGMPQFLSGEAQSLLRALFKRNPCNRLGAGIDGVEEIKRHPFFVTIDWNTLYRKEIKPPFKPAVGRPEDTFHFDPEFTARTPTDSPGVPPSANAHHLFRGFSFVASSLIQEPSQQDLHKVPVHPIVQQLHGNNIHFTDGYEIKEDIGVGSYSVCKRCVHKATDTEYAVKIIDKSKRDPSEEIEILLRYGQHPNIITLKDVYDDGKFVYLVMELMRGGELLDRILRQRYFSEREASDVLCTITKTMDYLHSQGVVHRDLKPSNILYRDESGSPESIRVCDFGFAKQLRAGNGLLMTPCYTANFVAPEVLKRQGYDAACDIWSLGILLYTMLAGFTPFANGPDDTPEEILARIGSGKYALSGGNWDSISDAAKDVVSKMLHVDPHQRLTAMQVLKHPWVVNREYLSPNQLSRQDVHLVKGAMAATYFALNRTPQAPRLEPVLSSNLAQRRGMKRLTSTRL

The target in one assay is GSK3A (human) (UniProt P49840). Description: radiometric filter-binding kinase assay, Kinase HotSpot. As to conditions: compound 0.5 µM; ATP 10 µM.
What is called residual activity is the signal under treatment as a percentage of the control signal. `O=C1Nc2ccccc2/C1=C1\Nc2ccccc2\C1=N/O`: the residual activity was determined as 16.5%.

In the case of `O=C(Nc1cccc(Nc2cc(Nc3cccc(C(F)(F)F)c3)ncn2)c1)C1CC1`, the residual activity was found to be 101%.

In the case of `Cc1nc2cc3nc(-c4cccs4)cnc3cc2n1C`, the residual activity is 94.1%.

Another assay concerns the target RPS6KA2 KD1 KD2 (human) (UniProt Q15349). The description is as above. The note with it: compound 0.5 µM; ATP 10 µM.
On to `O=C1Nc2ccccc2/C1=C1\Nc2ccccc2\C1=N/O`, for which the residual activity came to 42.6%.

For the compound `O=C(Nc1cccc(Nc2cc(Nc3cccc(C(F)(F)F)c3)ncn2)c1)C1CC1`, the residual activity is 102%.

For the compound `Cc1nc2cc3nc(-c4cccs4)cnc3cc2n1C`, the residual activity was 95%.

For another assay, the target named is CSNK1A1 (human) (UniProt P48729). The description is as above. The note with it: compound 0.5 µM; ATP 10 µM.
With `O=C1Nc2ccccc2/C1=C1\Nc2ccccc2\C1=N/O`, the residual activity stood at 48.2%.

Turning to `O=C(Nc1cccc(Nc2cc(Nc3cccc(C(F)(F)F)c3)ncn2)c1)C1CC1`, the residual activity was 102%.

Turning to `Cc1nc2cc3nc(-c4cccs4)cnc3cc2n1C`, the residual activity stood at 96.7%.

In the next assay the target is PLK1 (human) (UniProt P53350). Described as above. As to conditions: compound 0.5 µM; ATP 10 µM.
`O=C1Nc2ccccc2/C1=C1\Nc2ccccc2\C1=N/O`: the residual activity turned out to be 100%.

`O=C(Nc1cccc(Nc2cc(Nc3cccc(C(F)(F)F)c3)ncn2)c1)C1CC1`: the residual activity is 98.6%.

For `Cc1nc2cc3nc(-c4cccs4)cnc3cc2n1C`, the residual activity came out at 109%.

A further assay concerns the target MUSK (human) (UniProt O15146). The assay is described as above. As to conditions: compound 0.5 µM; ATP 10 µM.
With `O=C1Nc2ccccc2/C1=C1\Nc2ccccc2\C1=N/O`, the residual activity is 71.2%.

Regarding `O=C(Nc1cccc(Nc2cc(Nc3cccc(C(F)(F)F)c3)ncn2)c1)C1CC1`, the residual activity was determined as 113%.

As for `Cc1nc2cc3nc(-c4cccs4)cnc3cc2n1C`, the residual activity is 90.6%.

Another assay deals with PHKG2 (human) (UniProt P15735). Described as above. The note with it: compound 0.5 µM; ATP 10 µM.
On to `O=C1Nc2ccccc2/C1=C1\Nc2ccccc2\C1=N/O`, for which the residual activity was 60.7%.

Take `O=C(Nc1cccc(Nc2cc(Nc3cccc(C(F)(F)F)c3)ncn2)c1)C1CC1`: the residual activity came to 101%.

On to `Cc1nc2cc3nc(-c4cccs4)cnc3cc2n1C`, for which the residual activity is 102%.

The target of the next assay is HIPK4 (human) (UniProt Q8NE63). Described as above. As to conditions: compound 0.5 µM; ATP 10 µM.
With `O=C1Nc2ccccc2/C1=C1\Nc2ccccc2\C1=N/O`, the residual activity turned out to be 102%.

As for `O=C(Nc1cccc(Nc2cc(Nc3cccc(C(F)(F)F)c3)ncn2)c1)C1CC1`, the residual activity came to 101%.

For `Cc1nc2cc3nc(-c4cccs4)cnc3cc2n1C`, the residual activity amounted to 103%.

The next assay concerns the target ADRBK1 (human) (UniProt P25098). The description is as above. As to conditions: compound 0.5 µM; ATP 10 µM.
For `O=C1Nc2ccccc2/C1=C1\Nc2ccccc2\C1=N/O`, the residual activity came out at 89.5%.

For `O=C(Nc1cccc(Nc2cc(Nc3cccc(C(F)(F)F)c3)ncn2)c1)C1CC1`, the residual activity amounted to 97.9%.

For `Cc1nc2cc3nc(-c4cccs4)cnc3cc2n1C`, the residual activity stood at 83.7%.

For the next assay, the target named is NLK (human) (UniProt Q9UBE8). The description is as above. The note with it: compound 0.5 µM; ATP 10 µM.
In the case of `O=C1Nc2ccccc2/C1=C1\Nc2ccccc2\C1=N/O`, the residual activity was 94.6%.

As for `O=C(Nc1cccc(Nc2cc(Nc3cccc(C(F)(F)F)c3)ncn2)c1)C1CC1`, the residual activity turned out to be 95.9%.

On to `Cc1nc2cc3nc(-c4cccs4)cnc3cc2n1C`, for which the residual activity amounted to 105%.

The target in a further assay is TAOK2 (human) (UniProt Q9UL54). The assay is described as above. As to conditions: compound 0.5 µM; ATP 10 µM.
TAOK2 (human), sequence (Q9UL54 whole entry, looked up): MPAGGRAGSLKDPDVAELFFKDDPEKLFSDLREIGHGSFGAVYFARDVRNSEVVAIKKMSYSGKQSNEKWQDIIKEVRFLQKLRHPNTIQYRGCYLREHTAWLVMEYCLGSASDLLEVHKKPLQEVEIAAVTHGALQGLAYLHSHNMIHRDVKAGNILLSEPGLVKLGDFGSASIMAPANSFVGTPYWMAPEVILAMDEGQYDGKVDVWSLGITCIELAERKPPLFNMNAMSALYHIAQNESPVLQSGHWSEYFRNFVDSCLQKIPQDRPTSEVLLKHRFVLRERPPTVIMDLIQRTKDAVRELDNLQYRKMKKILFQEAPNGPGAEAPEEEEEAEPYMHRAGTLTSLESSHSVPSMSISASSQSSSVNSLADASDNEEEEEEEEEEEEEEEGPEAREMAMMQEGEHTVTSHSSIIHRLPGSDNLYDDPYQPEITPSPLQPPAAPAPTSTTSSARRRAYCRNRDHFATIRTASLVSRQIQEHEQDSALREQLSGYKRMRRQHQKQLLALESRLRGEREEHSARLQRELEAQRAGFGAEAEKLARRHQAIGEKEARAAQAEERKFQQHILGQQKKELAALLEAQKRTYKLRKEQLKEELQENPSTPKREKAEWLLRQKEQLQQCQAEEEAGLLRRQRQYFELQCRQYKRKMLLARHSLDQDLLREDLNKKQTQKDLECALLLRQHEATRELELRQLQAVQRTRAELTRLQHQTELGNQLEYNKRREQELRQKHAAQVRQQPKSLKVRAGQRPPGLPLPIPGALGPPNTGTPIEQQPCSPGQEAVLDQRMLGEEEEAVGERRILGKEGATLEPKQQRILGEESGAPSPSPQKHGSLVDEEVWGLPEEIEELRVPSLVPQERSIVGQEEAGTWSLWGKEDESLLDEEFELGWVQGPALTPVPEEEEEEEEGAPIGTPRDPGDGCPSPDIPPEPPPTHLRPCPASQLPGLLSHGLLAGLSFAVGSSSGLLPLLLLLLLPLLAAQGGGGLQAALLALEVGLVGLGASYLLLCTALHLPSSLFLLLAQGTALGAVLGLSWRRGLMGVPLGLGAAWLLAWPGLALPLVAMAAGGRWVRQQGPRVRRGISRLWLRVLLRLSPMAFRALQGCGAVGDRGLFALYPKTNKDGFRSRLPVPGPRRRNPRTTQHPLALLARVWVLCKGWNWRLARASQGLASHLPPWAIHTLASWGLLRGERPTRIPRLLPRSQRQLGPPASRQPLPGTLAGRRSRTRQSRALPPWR
As for `O=C1Nc2ccccc2/C1=C1\Nc2ccccc2\C1=N/O`, the residual activity amounted to 96.3%.

On to `O=C(Nc1cccc(Nc2cc(Nc3cccc(C(F)(F)F)c3)ncn2)c1)C1CC1`, for which the residual activity was determined as 103%.

As to `Cc1nc2cc3nc(-c4cccs4)cnc3cc2n1C`, the residual activity stood at 99.7%.

The target in a further assay is CAMK1G (human) (UniProt Q96NX5). The description is as above. As to conditions: compound 0.5 µM; ATP 10 µM.
`O=C1Nc2ccccc2/C1=C1\Nc2ccccc2\C1=N/O`: the residual activity is 101%.

As to `O=C(Nc1cccc(Nc2cc(Nc3cccc(C(F)(F)F)c3)ncn2)c1)C1CC1`, the residual activity worked out at 96.9%.

Consider `Cc1nc2cc3nc(-c4cccs4)cnc3cc2n1C`, for which the residual activity amounted to 106%.

The next assay concerns the target YES1 (human) (UniProt P07947). The description is as above. The note with it: compound 0.5 µM; ATP 10 µM.
For `O=C1Nc2ccccc2/C1=C1\Nc2ccccc2\C1=N/O`, the residual activity worked out at 45.1%.

Take `O=C(Nc1cccc(Nc2cc(Nc3cccc(C(F)(F)F)c3)ncn2)c1)C1CC1`: the residual activity was 99.6%.

In the case of `Cc1nc2cc3nc(-c4cccs4)cnc3cc2n1C`, the residual activity was determined as 66.9%.

In a further assay the target is HCK (human) (UniProt P08631). The description is as above. The note with it: compound 0.5 µM; ATP 10 µM.
HCK (human), sequence (P08631 whole entry, looked up): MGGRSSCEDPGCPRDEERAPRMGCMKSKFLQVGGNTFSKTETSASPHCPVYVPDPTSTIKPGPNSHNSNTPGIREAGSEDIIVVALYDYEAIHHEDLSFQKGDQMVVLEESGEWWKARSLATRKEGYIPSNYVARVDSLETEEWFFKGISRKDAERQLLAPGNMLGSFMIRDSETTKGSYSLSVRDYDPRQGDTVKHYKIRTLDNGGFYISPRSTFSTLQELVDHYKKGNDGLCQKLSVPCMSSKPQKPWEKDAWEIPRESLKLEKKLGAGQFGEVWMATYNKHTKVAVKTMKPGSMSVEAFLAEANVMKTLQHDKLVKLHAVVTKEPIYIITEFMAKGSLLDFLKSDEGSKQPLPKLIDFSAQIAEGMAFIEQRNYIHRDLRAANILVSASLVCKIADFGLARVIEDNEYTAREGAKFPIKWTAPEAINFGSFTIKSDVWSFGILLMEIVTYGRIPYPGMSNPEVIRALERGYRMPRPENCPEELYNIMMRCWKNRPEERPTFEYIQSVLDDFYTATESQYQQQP
For the compound `O=C1Nc2ccccc2/C1=C1\Nc2ccccc2\C1=N/O`, the residual activity came to 60.2%.

Consider `O=C(Nc1cccc(Nc2cc(Nc3cccc(C(F)(F)F)c3)ncn2)c1)C1CC1`, for which the residual activity was determined as 99%.

Take `Cc1nc2cc3nc(-c4cccs4)cnc3cc2n1C`: the residual activity amounted to 98%.

In the next assay the target is EGFR (human) (UniProt P00533). Described as above. The note with it: compound 0.5 µM; ATP 10 µM.
`O=C1Nc2ccccc2/C1=C1\Nc2ccccc2\C1=N/O`: the residual activity was 97.1%.

For the compound `O=C(Nc1cccc(Nc2cc(Nc3cccc(C(F)(F)F)c3)ncn2)c1)C1CC1`, the residual activity came to 5.82%.

In the case of `Cc1nc2cc3nc(-c4cccs4)cnc3cc2n1C`, the residual activity was found to be 104%.

A further assay concerns the target AKT2 (human) (UniProt P31751). Described as above. The note with it: compound 0.5 µM; ATP 10 µM.
As for `O=C1Nc2ccccc2/C1=C1\Nc2ccccc2\C1=N/O`, the residual activity stood at 92%.

In the case of `O=C(Nc1cccc(Nc2cc(Nc3cccc(C(F)(F)F)c3)ncn2)c1)C1CC1`, the residual activity amounted to 103%.

For `Cc1nc2cc3nc(-c4cccs4)cnc3cc2n1C`, the residual activity is 91.5%.

The target in another assay is MAP3K8 (human) (UniProt P41279). The assay is described as above. As to conditions: compound 0.5 µM; ATP 10 µM.
For `O=C1Nc2ccccc2/C1=C1\Nc2ccccc2\C1=N/O`, the residual activity stood at 106%.

In the case of `O=C(Nc1cccc(Nc2cc(Nc3cccc(C(F)(F)F)c3)ncn2)c1)C1CC1`, the residual activity was 98.4%.

As to `Cc1nc2cc3nc(-c4cccs4)cnc3cc2n1C`, the residual activity amounted to 99%.

For another assay, the target named is CDK6 CCND1 (human) (UniProt Q00534+P24385). The assay is described as above. The note with it: compound 0.5 µM; ATP 10 µM.
For the compound `O=C1Nc2ccccc2/C1=C1\Nc2ccccc2\C1=N/O`, the residual activity amounted to 52.8%.

In the case of `O=C(Nc1cccc(Nc2cc(Nc3cccc(C(F)(F)F)c3)ncn2)c1)C1CC1`, the residual activity came out at 99.1%.

Consider `Cc1nc2cc3nc(-c4cccs4)cnc3cc2n1C`, for which the residual activity came to 99.3%.

A further assay addresses GRK4 (human) (UniProt P32298). The assay is described as above. The note with it: compound 0.5 µM; ATP 10 µM.
As to `O=C1Nc2ccccc2/C1=C1\Nc2ccccc2\C1=N/O`, the residual activity worked out at 98.3%.

As for `O=C(Nc1cccc(Nc2cc(Nc3cccc(C(F)(F)F)c3)ncn2)c1)C1CC1`, the residual activity is 104%.

Consider `Cc1nc2cc3nc(-c4cccs4)cnc3cc2n1C`, for which the residual activity was 104%.

In another assay the target is LRRK2 (human) (UniProt Q5S007). The description is as above. The note with it: compound 0.5 µM; ATP 10 µM.
LRRK2 (human), sequence (Q5S007 whole entry, looked up): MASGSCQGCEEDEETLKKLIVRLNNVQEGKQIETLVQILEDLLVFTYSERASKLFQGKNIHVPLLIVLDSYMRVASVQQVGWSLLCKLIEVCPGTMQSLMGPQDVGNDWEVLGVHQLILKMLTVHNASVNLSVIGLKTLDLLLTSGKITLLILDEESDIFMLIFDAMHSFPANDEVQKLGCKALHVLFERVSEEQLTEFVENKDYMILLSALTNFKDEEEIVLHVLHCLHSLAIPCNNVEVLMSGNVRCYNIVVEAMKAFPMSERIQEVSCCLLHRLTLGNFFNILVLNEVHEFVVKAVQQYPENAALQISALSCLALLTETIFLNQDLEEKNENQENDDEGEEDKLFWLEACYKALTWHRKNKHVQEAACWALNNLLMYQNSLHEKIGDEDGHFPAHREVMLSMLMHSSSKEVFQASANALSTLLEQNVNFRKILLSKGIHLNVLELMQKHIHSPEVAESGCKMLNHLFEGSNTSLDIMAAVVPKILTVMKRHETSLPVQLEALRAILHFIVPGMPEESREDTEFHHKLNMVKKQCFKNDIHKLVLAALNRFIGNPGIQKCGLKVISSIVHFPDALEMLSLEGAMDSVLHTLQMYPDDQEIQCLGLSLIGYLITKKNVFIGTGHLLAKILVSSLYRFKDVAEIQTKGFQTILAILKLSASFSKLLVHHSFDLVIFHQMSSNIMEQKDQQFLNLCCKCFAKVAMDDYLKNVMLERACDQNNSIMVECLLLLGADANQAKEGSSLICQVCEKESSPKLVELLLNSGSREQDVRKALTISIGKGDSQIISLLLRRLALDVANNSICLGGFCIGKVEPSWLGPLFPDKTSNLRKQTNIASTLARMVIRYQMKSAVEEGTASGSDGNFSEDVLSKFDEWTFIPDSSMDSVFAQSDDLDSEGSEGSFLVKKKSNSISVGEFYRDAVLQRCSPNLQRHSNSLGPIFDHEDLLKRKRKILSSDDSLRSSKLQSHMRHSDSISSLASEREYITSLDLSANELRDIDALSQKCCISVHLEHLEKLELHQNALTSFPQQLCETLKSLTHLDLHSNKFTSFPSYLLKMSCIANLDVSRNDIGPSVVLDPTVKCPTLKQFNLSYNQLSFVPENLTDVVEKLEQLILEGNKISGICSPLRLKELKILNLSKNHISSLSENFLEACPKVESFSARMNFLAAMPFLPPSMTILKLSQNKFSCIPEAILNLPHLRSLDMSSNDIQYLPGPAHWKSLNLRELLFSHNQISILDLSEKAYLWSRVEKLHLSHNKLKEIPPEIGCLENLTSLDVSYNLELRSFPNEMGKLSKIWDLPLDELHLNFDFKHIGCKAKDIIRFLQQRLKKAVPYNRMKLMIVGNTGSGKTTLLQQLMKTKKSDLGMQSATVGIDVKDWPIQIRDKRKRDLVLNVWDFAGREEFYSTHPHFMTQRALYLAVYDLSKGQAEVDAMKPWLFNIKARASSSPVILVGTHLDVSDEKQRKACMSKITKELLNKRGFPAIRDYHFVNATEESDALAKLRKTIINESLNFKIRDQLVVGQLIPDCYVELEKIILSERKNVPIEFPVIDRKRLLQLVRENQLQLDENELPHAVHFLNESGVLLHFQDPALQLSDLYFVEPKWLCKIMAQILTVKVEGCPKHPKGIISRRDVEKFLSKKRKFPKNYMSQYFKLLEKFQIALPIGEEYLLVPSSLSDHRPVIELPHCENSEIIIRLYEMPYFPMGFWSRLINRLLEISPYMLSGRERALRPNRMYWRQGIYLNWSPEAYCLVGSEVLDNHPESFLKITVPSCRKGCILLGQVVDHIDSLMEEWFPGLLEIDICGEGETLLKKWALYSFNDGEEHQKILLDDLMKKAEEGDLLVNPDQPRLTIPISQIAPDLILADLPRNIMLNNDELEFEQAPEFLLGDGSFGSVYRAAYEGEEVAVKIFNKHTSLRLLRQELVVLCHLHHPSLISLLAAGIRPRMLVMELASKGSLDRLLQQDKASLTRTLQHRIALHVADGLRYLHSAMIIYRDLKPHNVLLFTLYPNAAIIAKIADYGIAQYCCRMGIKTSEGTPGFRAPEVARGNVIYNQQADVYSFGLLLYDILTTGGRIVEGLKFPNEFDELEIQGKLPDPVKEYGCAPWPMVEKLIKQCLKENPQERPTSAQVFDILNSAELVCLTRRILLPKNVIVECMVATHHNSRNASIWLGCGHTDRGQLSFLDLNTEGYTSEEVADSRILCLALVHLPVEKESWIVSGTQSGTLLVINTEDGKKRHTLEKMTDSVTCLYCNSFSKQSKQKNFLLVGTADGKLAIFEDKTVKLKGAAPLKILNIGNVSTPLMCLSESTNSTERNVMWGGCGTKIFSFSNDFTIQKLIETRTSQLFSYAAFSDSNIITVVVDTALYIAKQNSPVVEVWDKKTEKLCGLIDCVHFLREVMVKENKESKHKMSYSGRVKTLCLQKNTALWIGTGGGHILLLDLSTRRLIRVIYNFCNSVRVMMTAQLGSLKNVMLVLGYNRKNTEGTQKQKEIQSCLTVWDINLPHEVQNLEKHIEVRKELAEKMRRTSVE
In the case of `O=C1Nc2ccccc2/C1=C1\Nc2ccccc2\C1=N/O`, the residual activity amounted to 91.6%.

Turning to `O=C(Nc1cccc(Nc2cc(Nc3cccc(C(F)(F)F)c3)ncn2)c1)C1CC1`, the residual activity stood at 95.6%.

On to `Cc1nc2cc3nc(-c4cccs4)cnc3cc2n1C`, for which the residual activity is 106%.

The target of the next assay is STK4 (human) (UniProt Q13043). Described as above. As to conditions: compound 0.5 µM; ATP 10 µM.
Take `O=C1Nc2ccccc2/C1=C1\Nc2ccccc2\C1=N/O`: the residual activity was 18.8%.

For the compound `O=C(Nc1cccc(Nc2cc(Nc3cccc(C(F)(F)F)c3)ncn2)c1)C1CC1`, the residual activity was found to be 99%.

On to `Cc1nc2cc3nc(-c4cccs4)cnc3cc2n1C`, for which the residual activity stood at 97.4%.

A further assay has as its target EPHA3 (human) (UniProt P29320). Described as above. The note with it: compound 0.5 µM; ATP 10 µM.
`O=C1Nc2ccccc2/C1=C1\Nc2ccccc2\C1=N/O`: the residual activity stood at 92%.

Regarding `O=C(Nc1cccc(Nc2cc(Nc3cccc(C(F)(F)F)c3)ncn2)c1)C1CC1`, the residual activity is 98.4%.

`Cc1nc2cc3nc(-c4cccs4)cnc3cc2n1C`: the residual activity amounted to 102%.
